Data on 4 compounds can be found in patent US20150099800A1, “NOVEL LIPASE INHIBITORS, REPORTER SUBSTRATES AND USES THEREOF” (Northeastern University, priority 2012, published 2015).

Where two headings read alike, the source gives them in different places.

One assay deals with cannabinoid receptors. Conditions: cited from earlier work.
In another assay the target is T1, MAGL (Homo sapiens, UniProt Q99685).
T1 sequence (Q99685 1-303): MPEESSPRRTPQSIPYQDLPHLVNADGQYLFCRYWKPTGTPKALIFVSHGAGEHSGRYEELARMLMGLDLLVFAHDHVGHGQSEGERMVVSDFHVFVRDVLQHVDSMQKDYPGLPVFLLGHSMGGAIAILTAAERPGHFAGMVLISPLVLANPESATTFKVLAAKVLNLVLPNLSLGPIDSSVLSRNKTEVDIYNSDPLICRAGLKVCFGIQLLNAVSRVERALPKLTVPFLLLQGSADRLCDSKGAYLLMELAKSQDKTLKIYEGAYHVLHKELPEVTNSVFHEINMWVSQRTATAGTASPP
Conditions: cited from earlier work.

The target of a further assay is T2, mDAGLα (Mus musculus, UniProt Q6WQJ1).
T2 sequence (Q6WQJ1 1-1044): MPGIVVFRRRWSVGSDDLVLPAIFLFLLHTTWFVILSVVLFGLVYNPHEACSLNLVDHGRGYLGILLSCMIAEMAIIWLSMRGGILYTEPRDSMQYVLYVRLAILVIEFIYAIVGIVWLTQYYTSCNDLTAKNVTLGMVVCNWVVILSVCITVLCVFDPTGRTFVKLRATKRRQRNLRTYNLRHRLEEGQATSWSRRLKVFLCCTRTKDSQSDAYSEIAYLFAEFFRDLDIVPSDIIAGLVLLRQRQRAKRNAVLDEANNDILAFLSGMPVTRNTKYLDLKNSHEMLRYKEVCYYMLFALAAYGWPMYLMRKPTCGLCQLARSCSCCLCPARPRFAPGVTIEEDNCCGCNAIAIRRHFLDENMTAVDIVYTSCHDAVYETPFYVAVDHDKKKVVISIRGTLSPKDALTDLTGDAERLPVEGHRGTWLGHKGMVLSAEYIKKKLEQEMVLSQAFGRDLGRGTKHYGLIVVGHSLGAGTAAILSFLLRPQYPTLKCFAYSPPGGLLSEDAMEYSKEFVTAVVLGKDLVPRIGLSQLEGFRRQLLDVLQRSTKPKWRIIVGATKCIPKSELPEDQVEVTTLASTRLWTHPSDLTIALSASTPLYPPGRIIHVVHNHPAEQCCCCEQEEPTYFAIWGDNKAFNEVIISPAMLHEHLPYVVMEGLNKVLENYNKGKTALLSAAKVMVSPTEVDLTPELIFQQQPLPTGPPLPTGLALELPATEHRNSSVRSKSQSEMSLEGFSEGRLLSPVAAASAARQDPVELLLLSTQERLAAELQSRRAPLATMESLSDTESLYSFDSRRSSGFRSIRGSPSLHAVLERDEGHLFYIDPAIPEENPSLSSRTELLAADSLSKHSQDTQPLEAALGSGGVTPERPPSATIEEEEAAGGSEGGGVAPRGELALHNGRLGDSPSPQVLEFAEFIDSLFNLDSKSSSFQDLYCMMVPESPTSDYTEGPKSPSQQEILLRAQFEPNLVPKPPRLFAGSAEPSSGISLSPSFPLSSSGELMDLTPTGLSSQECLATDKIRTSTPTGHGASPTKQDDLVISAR
The experiment in a line: Radio-TLC assay with [14C]SAG substrate, mDAGLα. Conditions: for potency for mDAGLα relative to analogs of (S)-α-amino acids: 10 nM to 10 μM.

A further assay deals with FAAH. Conditions: cited from earlier work.
The target in a further assay is T3, hDAGLα (Homo sapiens, UniProt Q9Y4D2).
T3 sequence (Q9Y4D2 1-1042): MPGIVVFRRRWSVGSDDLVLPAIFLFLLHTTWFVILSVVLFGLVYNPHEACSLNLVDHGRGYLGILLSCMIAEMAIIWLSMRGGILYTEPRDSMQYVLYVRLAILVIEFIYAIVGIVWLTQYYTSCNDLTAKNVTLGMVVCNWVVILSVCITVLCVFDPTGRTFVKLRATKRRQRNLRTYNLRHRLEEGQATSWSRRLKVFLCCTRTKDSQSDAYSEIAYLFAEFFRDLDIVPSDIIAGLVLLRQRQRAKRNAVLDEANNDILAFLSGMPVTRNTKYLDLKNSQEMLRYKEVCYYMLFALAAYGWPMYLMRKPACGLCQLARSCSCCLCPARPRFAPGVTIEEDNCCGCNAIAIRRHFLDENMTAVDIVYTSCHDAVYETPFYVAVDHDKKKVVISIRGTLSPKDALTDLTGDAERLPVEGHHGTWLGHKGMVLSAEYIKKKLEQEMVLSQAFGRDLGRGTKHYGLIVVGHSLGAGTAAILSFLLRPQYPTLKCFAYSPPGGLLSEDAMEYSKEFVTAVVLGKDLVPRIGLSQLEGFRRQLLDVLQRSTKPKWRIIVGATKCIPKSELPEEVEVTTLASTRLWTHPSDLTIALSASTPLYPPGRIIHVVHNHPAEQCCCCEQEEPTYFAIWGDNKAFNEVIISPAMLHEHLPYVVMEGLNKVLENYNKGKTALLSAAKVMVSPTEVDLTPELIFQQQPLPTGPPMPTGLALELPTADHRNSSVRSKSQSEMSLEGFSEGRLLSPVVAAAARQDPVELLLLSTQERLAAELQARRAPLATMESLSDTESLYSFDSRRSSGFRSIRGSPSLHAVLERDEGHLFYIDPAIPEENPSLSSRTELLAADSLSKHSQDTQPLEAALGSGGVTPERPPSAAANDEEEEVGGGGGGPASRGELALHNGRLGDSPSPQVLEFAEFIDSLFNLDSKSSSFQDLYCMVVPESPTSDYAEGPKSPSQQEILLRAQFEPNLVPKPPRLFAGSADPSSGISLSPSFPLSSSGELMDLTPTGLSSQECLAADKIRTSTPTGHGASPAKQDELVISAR
As to the kind of experiment: biochemical. Conditions: read-out: hDAGLα inhibition at 10 μM TLC (with Triton X-100) (%), 10 μM; 0.05% Triton X-100 present.

The test system of assay [1] is pancreatic and extrapancreatic fat necrosis. Conditions: literature, cited from earlier work.
The subject of another assay is DAGL. Conditions: cited from earlier work.
[2] abbreviates: intraperitoneal (IP) injections.

`CCCCCCCCCCC[C@@H](C[C@@H]1OC(=O)[C@H]1CCCCCC)OC(=O)[C@H](CC(C)C)NC=O` [Compound 3, tetrahydrolipstatin]: the “binding to the cannabinoid receptors, previous reports” value in the assay on cannabinoid receptors (literature) is “did not bind”. In addition, the “inhibition of MAGL activity reported in the literature” value at MAGL (literature) was “poor inhibitors”. The inhibition at 0.01 µM at mDAGLα (read-out: mDAGLα inhibition at 10 nM (%)) came to 55%. For the same compound, the inhibition at 0.1 µM on mDAGLα (read-out: mDAGLα inhibition at 100 nM (%)) is 72%. The “inhibition of FAAH activity reported in the literature” value in the assay on FAAH (literature) is given as “poor inhibitors”. Moreover, on hDAGLα, the inhibition at 10 µM came to 100%. In assay [1] (setting [2]), the “effect on concentration of free fatty acid in the blood” value was “no effect” and the “lowering of lipase activity in the blood” value is recorded as “small effect”. Further, the “prevention of pancreatic and extrapancreatic fat necrosis” value in assay [1] (rodents) was “not effective”.

Regarding `CCCCCCCCCCCC(CC1OC(=O)C1CCCCCC)OC(=O)C(NC=O)C(C)CC` (stereo not drawn) [Compound 6], on mDAGLα, the “mDAGLα inhibition at 10 nM (%)” value was 33%, the “potency for mDAGLα relative to analogs of (S)-α-amino acids” value is listed as “clearly less potent”, the “mDAGLα inhibition at 100 nM (%)” value stood at 29% and the “mDAGLα inhibition at 1000 nM (%)” value is reported as 69%. The “mDAGLα inhibition at 10000 nM (%)” value at mDAGLα (10000 nM) came out at 85%.

As for `CCCCCCCCCCC[C@@H](C[C@@H]1OC(=O)[C@H]1CCCCCC)OC(=O)[C@H](NC=O)[C@@H](C)CC` [Compound 7], at mDAGLα, the “mDAGLα inhibition at 10 nM (%)” value turned out to be 19%, the “potency for mDAGLα relative to analogs of (S)-α-amino acids” value is listed as “clearly less potent”, the “mDAGLα inhibition at 100 nM (%)” value is 51% and the “mDAGLα inhibition at 1000 nM (%)” value turned out to be 75%. In addition, the “mDAGLα inhibition at 10000 nM (%)” value on mDAGLα (10000 nM) came to 90%.

Consider `O=C(Oc1ccc([N+](=O)[O-])cc1)N1CCC(C(O)(c2ccc3c(c2)OCO3)c2ccc3c(c2)OCO3)CC1` [JZL184], for which the “binding to the cannabinoid receptors, previous reports” value with cannabinoid receptors was “did not bind”. The “inhibition of MAGL activity reported in the literature” value at MAGL was “poor inhibitors”. Besides, at mDAGLα, the “mDAGLα inhibition at 10000 nM (%)” value is on record as 3%. Also, in the assay on DAGL, the “effect on DAGL activity reported in the literature” value is “poor inhibitors”. The “inhibition of FAAH activity reported in the literature” value in the assay with FAAH is “poor inhibitors”.

A word on the inhibition: it is how much of the control response was suppressed.
